Experimental data reported in PubChem BioAssay (NCI).
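GI50: concentration for 50% inhibition of growth. TGI: total growth inhibition.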

Columns and labels:
Experiment in all cases: NCI anticancer screen, dose series, 384-well format; in the data active = GI50 below about 0.43 µM; inactive = the rest
OVCAR-4 ovarian = system: OVCAR-4 ovarian
NCI/ADR-RES ovarian = system: NCI/ADR-RES ovarian
SR leukemia = system: SR leukemia
NCI-H23 lung = system: NCI-H23 lung
TK-10 renal = system: TK-10 renal
NCI-H322M lung = system: NCI-H322M lung
MALME-3M melanoma = system: MALME-3M melanoma
DU-145 prostate = system: DU-145 prostate
SF-539 CNS = system: SF-539 CNS
CAKI-1 renal = system: CAKI-1 renal
MCF7 breast = system: MCF7 breast
NCI-H226 lung = system: NCI-H226 lung
MOLT-4 leukemia = system: MOLT-4 leukemia
PC-3 prostate = system: PC-3 prostate
ACHN renal = system: ACHN renal
HOP-62 NSCLC = system: HOP-62 NSCLC
SNB-19 CNS = system: SNB-19 CNS
SW-620 colon = system: SW-620 colon
786-0 renal = system: 786-0 renal
SN12C renal = system: SN12C renal
IGROV1 ovarian = system: IGROV1 ovarian
HL-60(TB) leukemia = system: HL-60(TB) leukemia
M14 melanoma = system: M14 melanoma
HCC-2998 colon = system: HCC-2998 colon
EKVX NSCLC = system: EKVX NSCLC
SNB-75 CNS = system: SNB-75 CNS
RPMI-8226 leukemia = system: RPMI-8226 leukemia
HCT-15 colon = system: HCT-15 colon
HS 578T breast = system: HS 578T breast
KM12 colon = system: KM12 colon
A498 renal = system: A498 renal
UACC-62 melanoma = system: UACC-62 melanoma
NCI-H522 lung = system: NCI-H522 lung
UACC-257 melanoma = system: UACC-257 melanoma
SK-MEL-5 melanoma = system: SK-MEL-5 melanoma
SK-OV-3 ovarian = system: SK-OV-3 ovarian
U251 glioblastoma = system: U251 glioblastoma
UO-31 renal = system: UO-31 renal
MDA-MB-435 melanoma = system: MDA-MB-435 melanoma
MDA-MB-231 breast = system: MDA-MB-231 breast
COLO 205 colon = system: COLO 205 colon
K-562 leukemia = system: K-562 leukemia
OVCAR-5 ovarian = system: OVCAR-5 ovarian
SF-295 CNS = system: SF-295 CNS
NCI-H460 NSCLC = system: NCI-H460 NSCLC
SK-MEL-2 melanoma = system: SK-MEL-2 melanoma
SK-MEL-28 melanoma = system: SK-MEL-28 melanoma
BT-549 breast = system: BT-549 breast
HT29 colon = system: HT29 colon
A549 NSCLC = system: A549 NSCLC
LOX IMVI melanoma = system: LOX IMVI melanoma
SF-268 CNS = system: SF-268 CNS
OVCAR-3 ovarian = system: OVCAR-3 ovarian
CCRF-CEM leukemia = system: CCRF-CEM leukemia
MDA-MB-468 breast = system: MDA-MB-468 breast
T-47D breast = system: T-47D breast
HCT-116 colon = system: HCT-116 colon
RXF 393 renal = system: RXF 393 renal
HOP-92 NSCLC = system: HOP-92 NSCLC

N[C@H](CCC(=O)N[C@@H](Cc1c[nH]c2ccccc12)C(=O)O)C(=O)O
> 100 µM: TGI (OVCAR-4 ovarian) | TGI (NCI/ADR-RES ovarian) | TGI (SR leukemia) | TGI (NCI-H23 lung) | TGI (TK-10 renal) | TGI (NCI-H322M lung) | TGI (MALME-3M melanoma) | TGI (DU-145 prostate) | TGI (SF-539 CNS) | TGI (CAKI-1 renal) | TGI (MCF7 breast) | TGI (NCI-H226 lung) | TGI (MOLT-4 leukemia) | TGI (PC-3 prostate) | TGI (ACHN renal) | TGI (HOP-62 NSCLC) | TGI (SNB-19 CNS) | TGI (SW-620 colon) | TGI (786-0 renal) | TGI (SN12C renal) | TGI (IGROV1 ovarian) | TGI (HL-60(TB) leukemia) | TGI (M14 melanoma) | TGI (HCC-2998 colon) | TGI (EKVX NSCLC) | TGI (SNB-75 CNS) | TGI (RPMI-8226 leukemia) | TGI (HCT-15 colon) | TGI (HS 578T breast) | TGI (KM12 colon) | TGI (A498 renal) | TGI (UACC-62 melanoma) | TGI (NCI-H522 lung) | TGI (UACC-257 melanoma) | TGI (SK-MEL-5 melanoma) | TGI (SK-OV-3 ovarian) | TGI (U251 glioblastoma) | TGI (UO-31 renal) | TGI (MDA-MB-435 melanoma) | TGI (MDA-MB-231 breast) | TGI (COLO 205 colon) | TGI (K-562 leukemia) | TGI (OVCAR-5 ovarian) | TGI (SF-295 CNS) | TGI (NCI-H460 NSCLC) | TGI (SK-MEL-2 melanoma) | TGI (SK-MEL-28 melanoma) | TGI (BT-549 breast) | TGI (HT29 colon) | TGI (A549 NSCLC) | TGI (LOX IMVI melanoma) | TGI (SF-268 CNS) | TGI (OVCAR-3 ovarian) | TGI (CCRF-CEM leukemia) | TGI (MDA-MB-468 breast) | TGI (T-47D breast) | TGI (HCT-116 colon) | TGI (RXF 393 renal) | TGI (HOP-92 NSCLC)
inactive: GI50 (OVCAR-4 ovarian) > 100 µM | GI50 (NCI/ADR-RES ovarian) > 100 µM | GI50 (SR leukemia) > 100 µM | GI50 (NCI-H23 lung) > 100 µM | GI50 (TK-10 renal) > 100 µM | GI50 (NCI-H322M lung) > 100 µM | GI50 (MALME-3M melanoma) > 100 µM | GI50 (DU-145 prostate) > 100 µM | GI50 (SF-539 CNS) > 100 µM | GI50 (CAKI-1 renal) > 100 µM | GI50 (MCF7 breast) > 100 µM | GI50 (NCI-H226 lung) > 100 µM | GI50 (MOLT-4 leukemia) > 100 µM | GI50 (PC-3 prostate) > 100 µM | GI50 (ACHN renal) > 100 µM | GI50 (HOP-62 NSCLC) > 100 µM | GI50 (SNB-19 CNS) > 100 µM | GI50 (SW-620 colon) > 100 µM | GI50 ([…]-0 renal) > 100 µM | GI50 (SN12C renal) > 100 µM | GI50 (IGROV1 ovarian) > 100 µM | GI50 (HL-60(TB) leukemia) > 100 µM | GI50 (M14 melanoma) > 100 µM | GI50 (HCC-2998 colon) > 100 µM | GI50 (EKVX NSCLC) > 100 µM | GI50 (SNB-75 CNS) > 100 µM | GI50 (RPMI-8226 leukemia) > 100 µM | GI50 (HCT-15 colon) > 100 µM | GI50 (HS 578T breast) > 100 µM | GI50 (KM12 colon) > 100 µM | GI50 (A498 renal) > 100 µM | GI50 (UACC-62 melanoma) > 100 µM | GI50 (NCI-H522 lung) > 100 µM | GI50 (UACC-257 melanoma) > 100 µM | GI50 (SK-MEL-5 melanoma) > 100 µM | GI50 (SK-OV-3 ovarian) > 100 µM | GI50 (U251 glioblastoma) > 100 µM | GI50 (UO-31 renal) > 100 µM | GI50 (MDA-MB-435 melanoma) > 100 µM | GI50 (MDA-MB-231 breast) > 100 µM | GI50 (COLO 205 colon) > 100 µM | GI50 (K-562 leukemia) > 100 µM | GI50 (OVCAR-5 ovarian) > 100 µM | GI50 (SF-295 CNS) > 100 µM | GI50 (NCI-H460 NSCLC) > 100 µM | GI50 (SK-MEL-2 melanoma) > 100 µM | GI50 (SK-MEL-28 melanoma) > 100 µM | GI50 (BT-549 breast) > 100 µM | GI50 (HT29 colon) > 100 µM | GI50 (A549 NSCLC) > 100 µM | GI50 (LOX IMVI melanoma) > 100 µM | GI50 (SF-268 CNS) > 100 µM | GI50 (OVCAR-3 ovarian) > 100 µM | GI50 (CCRF-CEM leukemia) > 100 µM | GI50 (MDA-MB-468 breast) > 100 µM | GI50 (T-47D breast) > 100 µM | GI50 (HCT-116 colon) > 100 µM | GI50 (RXF 393 renal) > 100 µM | GI50 (HOP-92 NSCLC) > 100 µM
